From ChEMBL document CHEMBL4020759, “Sulfoximines as ATR inhibitors: Analogs of VE-821” (2017)
Activity calls are given as the source filed them. The calls are words filed in the database; no cut-off is given here.

Tests used:
M14 = test: Growth inhibition of human M14 cells assessed as cell growth at 10 uM incubated for 48 hrs by sulforhodamine B assay; format: functional; conditions: M14, 48 h, read-out: Activity
HOP-62 = test: Growth inhibition of human HOP62 cells assessed as cell growth at 10 uM incubated for 48 hrs by sulforhodamine B assay; format: functional; conditions: HOP-62, 48 h, read-out: Activity
NCI-H322M = test: Growth inhibition of human NCI-H322M cells assessed as cell growth at 10 uM incubated for 48 hrs by sulforhodamine B assay; format: functional; conditions: read-out: Activity
UO-31 = test: Growth inhibition of human UO31 cells assessed as cell growth at 10 uM incubated for 48 hrs by sulforhodamine B assay; format: functional; conditions: UO-31, 48 h, read-out: Activity
HL-60(TB) = test: Growth inhibition of human HL-60(TB) cells assessed as cell growth at 10 uM incubated for 48 hrs by sulforhodamine B assay; format: functional; conditions: HL-60, 48 h, read-out: Activity
Hs-578T = test: Growth inhibition of human Hs578T cells assessed as cell growth at 10 uM incubated for 48 hrs by sulforhodamine B assay; format: functional; conditions: read-out: Activity
MOLT-4 = test: Growth inhibition of human MOLT4 cells assessed as cell growth at 10 uM incubated for 48 hrs by sulforhodamine B assay; format: functional; conditions: MOLT-4, 48 h, read-out: Activity
[1] = biological target: Serine/threonine-protein kinase ATR (Homo sapiens) (UniProt Q13535); test: Inhibition of ATR in human U2OS cells assessed as reduction in hydroxyurea-induced Chk-1 phosphorylation at Ser345 residue by measuring ratio of GAPDH level to phosphorylated Chk-1 level at 10 uM preincubated for 1 hr followed by hydroxyurea challenge measured after 2 hrs by Western blot analysis; format: cell-based
T47D = test: Growth inhibition of human T47D cells assessed as cell growth at 10 uM incubated for 48 hrs by sulforhodamine B assay; format: functional; conditions: read-out: Activity
NCI-H226 = test: Growth inhibition of human NCI-H226 cells assessed as cell growth at 10 uM incubated for 48 hrs by sulforhodamine B assay; format: functional; conditions: NCI-H226, 48 h, read-out: Activity
[2] = biological target: Serine-protein kinase ATM (Homo sapiens) (UniProt Q13315); test: Inhibition of ATM in human U2OS cells assessed as reduction in hydroxyurea-induced H2AX phosphorylation at Ser139 residue at 3 to 10 uM preincubated for 1 hr followed by hydroxyurea challenge measured after 2 hrs by Western blot analysis; format: cell-based
Serine-protein kinase ATM (Homo sapiens), sequence (Q13315 whole entry): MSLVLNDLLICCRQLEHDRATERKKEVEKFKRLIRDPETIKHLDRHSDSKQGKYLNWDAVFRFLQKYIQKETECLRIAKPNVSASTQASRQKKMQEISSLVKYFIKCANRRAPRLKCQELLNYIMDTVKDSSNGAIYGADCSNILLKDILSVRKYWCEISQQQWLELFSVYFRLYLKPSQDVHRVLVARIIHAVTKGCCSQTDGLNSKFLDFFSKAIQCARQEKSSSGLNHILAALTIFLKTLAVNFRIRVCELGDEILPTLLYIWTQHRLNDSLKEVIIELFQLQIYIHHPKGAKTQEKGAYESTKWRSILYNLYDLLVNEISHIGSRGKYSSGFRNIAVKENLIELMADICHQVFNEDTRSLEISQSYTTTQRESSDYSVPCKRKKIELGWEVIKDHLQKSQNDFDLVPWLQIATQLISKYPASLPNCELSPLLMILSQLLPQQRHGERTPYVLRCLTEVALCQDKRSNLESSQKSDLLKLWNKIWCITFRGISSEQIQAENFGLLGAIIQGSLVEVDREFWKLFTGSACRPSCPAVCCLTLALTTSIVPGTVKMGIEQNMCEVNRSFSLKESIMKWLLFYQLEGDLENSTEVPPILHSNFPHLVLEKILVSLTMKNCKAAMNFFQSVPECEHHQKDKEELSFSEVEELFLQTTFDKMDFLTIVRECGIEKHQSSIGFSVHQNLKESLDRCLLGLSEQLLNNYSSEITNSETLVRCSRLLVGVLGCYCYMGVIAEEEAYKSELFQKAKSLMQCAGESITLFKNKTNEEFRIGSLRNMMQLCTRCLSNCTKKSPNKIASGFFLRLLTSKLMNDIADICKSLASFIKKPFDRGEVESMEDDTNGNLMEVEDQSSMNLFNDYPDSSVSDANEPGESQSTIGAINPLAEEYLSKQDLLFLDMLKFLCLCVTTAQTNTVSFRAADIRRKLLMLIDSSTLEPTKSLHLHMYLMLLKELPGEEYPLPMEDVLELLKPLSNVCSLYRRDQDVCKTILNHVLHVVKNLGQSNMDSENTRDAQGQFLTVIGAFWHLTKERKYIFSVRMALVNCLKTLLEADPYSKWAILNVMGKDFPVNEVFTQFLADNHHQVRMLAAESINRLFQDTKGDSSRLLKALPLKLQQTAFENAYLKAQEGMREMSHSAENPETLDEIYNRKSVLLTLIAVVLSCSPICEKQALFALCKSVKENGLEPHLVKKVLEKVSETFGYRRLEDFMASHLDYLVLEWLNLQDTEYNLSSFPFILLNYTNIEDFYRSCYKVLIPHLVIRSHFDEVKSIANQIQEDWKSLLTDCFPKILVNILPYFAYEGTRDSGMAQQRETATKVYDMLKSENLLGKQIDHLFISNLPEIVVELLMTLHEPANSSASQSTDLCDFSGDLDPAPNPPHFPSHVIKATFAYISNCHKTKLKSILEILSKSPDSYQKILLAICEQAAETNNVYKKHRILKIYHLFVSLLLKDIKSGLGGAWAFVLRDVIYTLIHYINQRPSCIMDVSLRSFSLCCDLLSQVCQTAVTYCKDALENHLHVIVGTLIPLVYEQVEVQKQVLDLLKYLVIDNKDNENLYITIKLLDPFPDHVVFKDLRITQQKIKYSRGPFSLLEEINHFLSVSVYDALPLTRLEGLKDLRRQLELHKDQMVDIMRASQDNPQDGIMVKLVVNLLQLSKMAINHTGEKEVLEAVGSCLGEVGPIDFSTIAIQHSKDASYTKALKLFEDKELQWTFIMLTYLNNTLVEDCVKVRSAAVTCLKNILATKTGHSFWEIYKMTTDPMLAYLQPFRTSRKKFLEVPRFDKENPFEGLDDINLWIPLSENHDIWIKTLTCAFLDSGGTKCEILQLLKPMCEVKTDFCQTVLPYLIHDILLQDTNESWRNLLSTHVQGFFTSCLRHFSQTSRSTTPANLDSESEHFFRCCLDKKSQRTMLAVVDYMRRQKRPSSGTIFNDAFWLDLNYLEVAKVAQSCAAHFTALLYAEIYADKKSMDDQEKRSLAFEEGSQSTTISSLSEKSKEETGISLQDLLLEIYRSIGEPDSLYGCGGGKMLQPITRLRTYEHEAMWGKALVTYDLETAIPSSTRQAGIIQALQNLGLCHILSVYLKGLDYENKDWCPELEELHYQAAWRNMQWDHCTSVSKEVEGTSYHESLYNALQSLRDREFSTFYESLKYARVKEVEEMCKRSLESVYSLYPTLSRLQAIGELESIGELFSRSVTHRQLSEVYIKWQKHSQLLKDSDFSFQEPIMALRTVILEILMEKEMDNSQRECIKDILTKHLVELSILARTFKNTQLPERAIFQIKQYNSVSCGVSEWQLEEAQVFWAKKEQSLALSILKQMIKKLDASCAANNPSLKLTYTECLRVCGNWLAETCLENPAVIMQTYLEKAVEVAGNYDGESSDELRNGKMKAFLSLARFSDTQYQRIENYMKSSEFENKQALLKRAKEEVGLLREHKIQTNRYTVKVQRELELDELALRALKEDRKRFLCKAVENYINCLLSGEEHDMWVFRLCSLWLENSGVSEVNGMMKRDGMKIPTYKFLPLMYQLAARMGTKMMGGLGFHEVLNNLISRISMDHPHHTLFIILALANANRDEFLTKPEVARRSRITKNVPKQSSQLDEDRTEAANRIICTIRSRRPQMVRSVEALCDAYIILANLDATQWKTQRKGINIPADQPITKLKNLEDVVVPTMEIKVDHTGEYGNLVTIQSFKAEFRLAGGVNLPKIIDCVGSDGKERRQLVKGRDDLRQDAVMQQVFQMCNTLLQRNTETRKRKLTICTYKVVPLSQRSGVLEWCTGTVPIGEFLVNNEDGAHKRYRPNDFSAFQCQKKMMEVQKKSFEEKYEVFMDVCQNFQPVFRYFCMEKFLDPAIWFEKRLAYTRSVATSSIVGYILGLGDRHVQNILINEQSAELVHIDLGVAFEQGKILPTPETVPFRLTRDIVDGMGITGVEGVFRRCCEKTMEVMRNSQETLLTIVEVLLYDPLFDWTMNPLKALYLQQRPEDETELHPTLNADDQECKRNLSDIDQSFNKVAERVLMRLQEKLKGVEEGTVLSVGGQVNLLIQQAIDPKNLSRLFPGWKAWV

EKVX = test: Growth inhibition of human EKVX cells assessed as cell growth at 10 uM incubated for 48 hrs by sulforhodamine B assay; format: functional; conditions: read-out: Activity
SW-620 = test: Growth inhibition of human SW620 cells assessed as cell growth at 10 uM incubated for 48 hrs by sulforhodamine B assay; format: functional; conditions: SW-620, 48 h, read-out: Activity
UACC-62 = test: Growth inhibition of human UACC62 cells assessed as cell growth at 10 uM incubated for 48 hrs by sulforhodamine B assay; format: functional; conditions: UACC-62, 48 h, read-out: Activity
OVCAR-5 = test: Growth inhibition of human OVCAR5 cells assessed as cell growth at 10 uM incubated for 48 hrs by sulforhodamine B assay; format: functional; conditions: OVCAR-5, 48 h, read-out: Activity
SK-OV-3 = test: Growth inhibition of human SKOV3 cells assessed as cell growth at 10 uM incubated for 48 hrs by sulforhodamine B assay; format: functional; conditions: SK-OV-3, 48 h, read-out: Activity
HCC 2998 = test: Growth inhibition of human HCC2998 cells assessed as cell growth at 10 uM incubated for 48 hrs by sulforhodamine B assay; format: functional; conditions: HCC 2998, 48 h, read-out: Activity
SNB-19 = test: Growth inhibition of human SNB19 cells assessed as cell growth at 10 uM incubated for 48 hrs by sulforhodamine B assay; format: functional; conditions: SNB-19, 48 h, read-out: Activity
IGROV-1 = test: Growth inhibition of human IGROV1 cells assessed as cell growth at 10 uM incubated for 48 hrs by sulforhodamine B assay; format: functional; conditions: IGROV-1, 48 h, read-out: Activity
CCRF-CEM = test: Growth inhibition of human CCRF-CEM cells assessed as cell growth at 10 uM incubated for 48 hrs by sulforhodamine B assay; format: functional; conditions: read-out: Activity
SF-268 = test: Growth inhibition of human SF268 cells assessed as cell growth at 10 uM incubated for 48 hrs by sulforhodamine B assay; format: functional; conditions: SF-268, 48 h, read-out: Activity
HCT-15 = test: Growth inhibition of human HCT15 cells assessed as cell growth at 10 uM incubated for 48 hrs by sulforhodamine B assay; format: functional; conditions: HCT-15, 48 h, read-out: Activity
[3] = biological target: Serine-protein kinase ATM (Homo sapiens) (UniProt Q13315); test: Inhibition of ATM in human U2OS cells assessed as reduction in etoposide-induced Chk-2 phosphorylation at Thr68 residue at 10 uM preincubated for 1 hr followed by etoposide challenge measured after 20 mins by Western blot analysis; format: cell-based
Ramos = test: Induction of apoptosis in human Ramos cells assessed as increase PARP-1 cleavage at 10 uM after 48 hrs by Western blot analysis; format: functional, cell-based
[4] = biological target: Serine/threonine-protein kinase ATR (Homo sapiens) (UniProt Q13535); test: Inhibition of ATR in human U2OS cells assessed as reduction in etoposide-induced Chk-1 phosphorylation at Ser345 residue at 10 uM preincubated for 1 hr followed by etoposide challenge measured after 20 mins by Western blot analysis; format: cell-based
NCI/ADR-RES = test: Growth inhibition of human NCI/ADR-RES cells assessed as cell growth at 10 uM incubated for 48 hrs by sulforhodamine B assay; format: functional; conditions: read-out: Activity
NCI-H522 = test: Growth inhibition of human NCI-H522 cells assessed as cell growth at 10 uM incubated for 48 hrs by sulforhodamine B assay; format: functional; conditions: NCI-H522, 48 h, read-out: Activity
SK-MEL-28 = test: Growth inhibition of human SK-MEL-28 cells assessed as cell growth at 10 uM incubated for 48 hrs by sulforhodamine B assay; format: functional; conditions: SK-MEL-28, 48 h, read-out: Activity
ACHN = test: Growth inhibition of human ACHN cells assessed as cell growth at 10 uM incubated for 48 hrs by sulforhodamine B assay; format: functional; conditions: read-out: Activity
LOX IMVI = test: Growth inhibition of human LOXIMVI cells assessed as cell growth at 10 uM incubated for 48 hrs by sulforhodamine B assay; format: functional; conditions: read-out: Activity
BT-549 = test: Growth inhibition of human BT549 cells assessed as cell growth at 10 uM incubated for 48 hrs by sulforhodamine B assay; format: functional; conditions: BT-549, 48 h, read-out: Activity
OVCAR-3 = test: Growth inhibition of human OVCAR3 cells assessed as cell growth at 10 uM incubated for 48 hrs by sulforhodamine B assay; format: functional; conditions: OVCAR-3, 48 h, read-out: Activity
MCF7 = test: Growth inhibition of human MCF7 cells assessed as cell growth at 10 uM incubated for 48 hrs by sulforhodamine B assay; format: functional; conditions: MCF7, 48 h, read-out: Activity
A549 = test: Growth inhibition of human A549/ATCC cells assessed as cell growth at 10 uM incubated for 48 hrs by sulforhodamine B assay; format: functional; conditions: A549, 48 h, read-out: Activity

C/S(=N\C#N)c1ccc(-c2cnc(N)c(C(=O)Nc3ccccc3)n2)cc1 (stereo not drawn) showed a growth at 10 µM (M14) of 69.5%, a growth at 10 µM (HOP-62) of 110% and a growth at 10 µM (NCI-H322M) of 71.3%. It also gave a growth at 10 µM (UO-31) of 49.1%, a growth at 10 µM (HL-60(TB)) of 79.2% and a growth at 10 µM (Hs-578T) of 74.6%. The growth at 10 µM (MOLT-4) was 74.5%, the Ratio [1] was 22.5 and the growth at 10 µM (T47D) was 82.9%. The growth at 10 µM (NCI-H226) was 88.5%, the inhibition [2] was “inactive” and the growth at 10 µM (EKVX) was 107%. For the same compound, the growth at 10 µM (SW-620) was 85.9%, the growth at 10 µM (UACC-62) was 82.2% and the growth at 10 µM (OVCAR-5) was 120%. It also gave a growth at 10 µM (SK-OV-3) of 68%, a growth at 10 µM (HCC 2998) of 109% and a growth at 10 µM (SNB-19) of 104%. For the same compound, the growth at 10 µM (IGROV-1) was 56.9%, the growth at 10 µM (CCRF-CEM) was 83.5% and the growth at 10 µM (SF-268) was 88.4%. For the same compound, the growth at 10 µM (HCT-15) was 64.2%, the inhibition [3] was “inactive” and the Activity (Ramos) was “Active”. The inhibition [4] was “Active”, the growth at 10 µM (NCI/ADR-RES) was 108% and the growth at 10 µM (NCI-H522) was 77.2%. For the same compound, the growth at 10 µM (SK-MEL-28) was 97.4%, the growth at 10 µM (ACHN) was 54% and the growth at 10 µM (LOX IMVI) was 77.8%. For the same compound, the growth at 10 µM (BT-549) was 83.5%, the growth at 10 µM (OVCAR-3) was 83.4% and the growth at 10 µM (MCF7) was 75.7%. The growth at 10 µM (A549) was 85.4%.

Work on CS(=O)(=NC#N)c1ccc(-c2cnc(N)c(C(=O)Nc3ccccc3)n2)cc1 (stereo not drawn) yielded a growth at 10 µM (M14) of 77.7%, a growth at 10 µM (HOP-62) of 97% and a growth at 10 µM (NCI-H322M) of 78.6%. The growth at 10 µM (UO-31) was 48.1%, the growth at 10 µM (HL-60(TB)) was 108% and the growth at 10 µM (Hs-578T) was 55%. The growth at 10 µM (MOLT-4) was 64.7%, the Ratio [1] was 43.1 and the growth at 10 µM (T47D) was 99%. For the same compound, the growth at 10 µM (NCI-H226) was 92%, the inhibition [2] was “inactive” and the growth at 10 µM (EKVX) was 88.1%. It also gave a growth at 10 µM (SW-620) of 109%, a growth at 10 µM (UACC-62) of 74.7% and a growth at 10 µM (OVCAR-5) of 163%. For the same compound, the growth at 10 µM (SK-OV-3) was 56.8%, the growth at 10 µM (HCC 2998) was 105% and the growth at 10 µM (SNB-19) was 105%. For the same compound, the growth at 10 µM (IGROV-1) was 59.8%, the growth at 10 µM (CCRF-CEM) was 79.9% and the growth at 10 µM (SF-268) was 87.7%. The growth at 10 µM (HCT-15) was 63.2%, the inhibition [3] was “inactive” and the Activity (Ramos) was “Active”. The inhibition [4] was “Active”, the growth at 10 µM (NCI/ADR-RES) was 96.9% and the growth at 10 µM (NCI-H522) was 86.8%. The growth at 10 µM (SK-MEL-28) was 111%, the growth at 10 µM (ACHN) was 51.4% and the growth at 10 µM (LOX IMVI) was 66.5%. It also gave a growth at 10 µM (BT-549) of 73.4%, a growth at 10 µM (OVCAR-3) of 89.4% and a growth at 10 µM (MCF7) of 45.5%. The growth at 10 µM (A549) was 63.1%.
